According to PubChem BioAssay (NCI):
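Grown in 96-well plates, cells were treated for 48 hours with each compound at five concentrations. Insufficient inhibition: endpoint recorded as highest concentration tested. Abbreviation: GI50, concentration required for 50% inhibition of growth. TGI: total growth inhibition.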 Where a SMILES comes first, the peptide text is derived from it. Bridges are numbered along the chain shown (N, C = ends). [ ]: non-standard residue; d: D form. The star is where a group is joined. Phe(3,5-F2) = N[C@@H](Cc1cc(F)cc(F)c1)C(=O)O; Pro(4R-Me) = C[C@H]1CN[C@H](C(=O)O)C1; aThr = C[C@H](O)[C@H](N)C(=O)O; Pip = O=C(O)[C@@H]1CCCCN1; X7 = CCC/C=C/C=C/C(=O)*

Columns and labels:
Experiment in all cases: growth of human tumour cells (NCI), 48 h
NCI/ADR-RES ovarian = test system: NCI/ADR-RES ovarian
DU-145 prostate = test system: DU-145 prostate
K-562 leukemia = test system: K-562 leukemia
ACHN renal = test system: ACHN renal
UO-31 renal = test system: UO-31 renal
CAKI-1 renal = test system: CAKI-1 renal
T-47D breast = test system: T-47D breast
SK-MEL-28 melanoma = test system: SK-MEL-28 melanoma
EKVX NSCLC = test system: EKVX NSCLC
HCC-2998 colon = test system: HCC-2998 colon
SK-MEL-2 melanoma = test system: SK-MEL-2 melanoma
SW-620 colon = test system: SW-620 colon
SR leukemia = test system: SR leukemia
MALME-3M melanoma = test system: MALME-3M melanoma
SF-295 CNS = test system: SF-295 CNS
UACC-257 melanoma = test system: UACC-257 melanoma
BT-549 breast = test system: BT-549 breast
NCI-H460 lung = test system: NCI-H460 lung
RPMI-8226 leukemia = test system: RPMI-8226 leukemia
OVCAR-3 ovarian = test system: OVCAR-3 ovarian
SN12C renal = test system: SN12C renal
A549 NSCLC = test system: A549 NSCLC
MOLT-4 leukemia = test system: MOLT-4 leukemia
NCI-H23 lung = test system: NCI-H23 lung
HCT-15 colon = test system: HCT-15 colon
OVCAR-5 ovarian = test system: OVCAR-5 ovarian
CCRF-CEM leukemia = test system: CCRF-CEM leukemia
KM12 colon = test system: KM12 colon
SK-MEL-5 melanoma = test system: SK-MEL-5 melanoma
MDA-MB-435 = test system: MDA-MB-435
PC-3 prostate = test system: PC-3 prostate
NCI-H522 lung = test system: NCI-H522 lung
OVCAR-8 ovarian = test system: OVCAR-8 ovarian
786-0 renal = test system: 786-0 renal
HL-60(TB) leukemia = test system: HL-60(TB) leukemia
M14 melanoma = test system: M14 melanoma
RXF 393 renal = test system: RXF 393 renal
COLO 205 colon = test system: COLO 205 colon
HS 578T breast = test system: HS 578T breast
HOP-92 NSCLC = test system: HOP-92 NSCLC
MDA-MB-231 breast = test system: MDA-MB-231 breast
OVCAR-4 ovarian = test system: OVCAR-4 ovarian
SK-OV-3 ovarian = test system: SK-OV-3 ovarian
A498 renal = test system: A498 renal
IGROV1 ovarian = test system: IGROV1 ovarian
LOX IMVI melanoma = test system: LOX IMVI melanoma
UACC-62 melanoma = test system: UACC-62 melanoma
U251 CNS = test system: U251 CNS
NCI-H226 lung = test system: NCI-H226 lung
SF-539 CNS = test system: SF-539 CNS
MCF7 breast = test system: MCF7 breast
SNB-75 CNS = test system: SNB-75 CNS
SF-268 CNS = test system: SF-268 CNS
SNB-19 CNS = test system: SNB-19 CNS
TK-10 renal = test system: TK-10 renal
HOP-62 NSCLC = test system: HOP-62 NSCLC
HCT-116 colon = test system: HCT-116 colon
HT29 colon = test system: HT29 colon

CCC/C=C/C=C/C(=O)N[C@@H](Cc1cc(F)cc(F)c1)C(=O)N[C@@H]1C(=O)N2CCC[C@H]2C(=O)N2CCCC[C@H]2C(=O)N[C@@H](C)C(=O)N2C[C@H](C)C[C@H]2C(=O)O[C@H]1C (X7-[Phe(3,5-F2)][aThr]P[Pip]A[Pro(4R-Me)]; ester 2-C)
GI50 (NCI/ADR-RES ovarian): 2.17 µM | TGI (NCI/ADR-RES ovarian): 16.1 µM | GI50 (DU-145 prostate): 0.619 µM | TGI (DU-145 prostate): > 66.7 µM | GI50 (K-562 leukemia): 0.402 µM | TGI (K-562 leukemia): > 100 µM | GI50 (ACHN renal): 1.12 µM | TGI (ACHN renal): 28.7 µM | GI50 (UO-31 renal): 1.08 µM | TGI (UO-31 renal): 27.5 µM | GI50 (CAKI-1 renal): 0.415 µM | TGI (CAKI-1 renal): 12.5 µM | GI50 (T-47D breast): 0.453 µM | TGI (T-47D breast): 13.9 µM | GI50 (SK-MEL-28 melanoma): 0.987 µM | TGI (SK-MEL-28 melanoma): 14.1 µM | GI50 (EKVX NSCLC): 0.491 µM | TGI (EKVX NSCLC): 26.2 µM | GI50 (HCC-2998 colon): 0.463 µM | TGI (HCC-2998 colon): 4.93 µM | GI50 (SK-MEL-2 melanoma): 0.422 µM | TGI (SK-MEL-2 melanoma): 5.1 µM | GI50 (SW-620 colon): 0.704 µM | TGI (SW-620 colon): > 46.1 µM | GI50 (SR leukemia): 0.892 µM | TGI (SR leukemia): 26.4 µM | GI50 (MALME-3M melanoma): 1.01 µM | TGI (MALME-3M melanoma): 14 µM | GI50 (SF-295 CNS): 0.358 µM | TGI (SF-295 CNS): 2.03 µM | GI50 (UACC-257 melanoma): 0.356 µM | TGI (UACC-257 melanoma): 4.16 µM | GI50 (BT-549 breast): 0.37 µM | TGI (BT-549 breast): 3.4 µM | GI50 (NCI-H460 lung): 0.5 µM | TGI (NCI-H460 lung): 14.1 µM | GI50 (RPMI-8226 leukemia): 0.339 µM | TGI (RPMI-8226 leukemia): 4.76 µM | GI50 (OVCAR-3 ovarian): 0.596 µM | TGI (OVCAR-3 ovarian): 17.1 µM | GI50 (SN12C renal): 0.419 µM | TGI (SN12C renal): 15.5 µM | GI50 (A549 NSCLC): 0.506 µM | TGI (A549 NSCLC): > 58.5 µM | GI50 (MOLT-4 leukemia): 1.11 µM | TGI (MOLT-4 leukemia): > 44 µM | GI50 (NCI-H23 lung): 0.389 µM | TGI (NCI-H23 lung): 13.4 µM | GI50 (HCT-15 colon): 0.482 µM | TGI (HCT-15 colon): 11 µM | GI50 (OVCAR-5 ovarian): 0.583 µM | TGI (OVCAR-5 ovarian): 6.13 µM | GI50 (CCRF-CEM leukemia): 0.411 µM | TGI (CCRF-CEM leukemia): 14.5 µM | GI50 (KM12 colon): 1.81 µM | TGI (KM12 colon): 29 µM | GI50 (SK-MEL-5 melanoma): 0.509 µM | TGI (SK-MEL-5 melanoma): 3.31 µM | GI50 (MDA-MB-435): 0.412 µM | TGI (MDA-MB-435): 5.71 µM | GI50 (PC-3 prostate): 0.367 µM | TGI (PC-3 prostate): 17.2 µM | GI50 (NCI-H522 lung): 0.462 µM | TGI (NCI-H522 lung): 13 µM | GI50 (OVCAR-8 ovarian): 0.414 µM | TGI (OVCAR-8 ovarian): > 46.8 µM | GI50 (786-0 renal): 0.842 µM | TGI (786-0 renal): 31 µM | GI50 (HL-60(TB) leukemia): 0.404 µM | TGI (HL-60(TB) leukemia): 5.83 µM | GI50 (M14 melanoma): 0.461 µM | TGI (M14 melanoma): 5.23 µM | GI50 (RXF 393 renal): 1.5 µM | TGI (RXF 393 renal): 8.29 µM | GI50 (COLO 205 colon): 0.286 µM | TGI (COLO 205 colon): 0.85 µM | GI50 (HS 578T breast): 0.594 µM | TGI (HS 578T breast): 17.4 µM | GI50 (HOP-92 NSCLC): 0.313 µM | TGI (HOP-92 NSCLC): 3.74 µM | GI50 (MDA-MB-231 breast): 0.409 µM | TGI (MDA-MB-231 breast): 3.36 µM | GI50 (OVCAR-4 ovarian): 0.395 µM | TGI (OVCAR-4 ovarian): 19.3 µM | GI50 (SK-OV-3 ovarian): 0.499 µM | TGI (SK-OV-3 ovarian): 12.8 µM | GI50 (A498 renal): 2.43 µM | TGI (A498 renal): 28.4 µM | GI50 (IGROV1 ovarian): 1.78 µM | TGI (IGROV1 ovarian): 23.7 µM | GI50 (LOX IMVI melanoma): 0.433 µM | TGI (LOX IMVI melanoma): 12.8 µM | GI50 (UACC-62 melanoma): 0.522 µM | TGI (UACC-62 melanoma): 6.37 µM | GI50 (U251 CNS): 0.451 µM | TGI (U251 CNS): 16.5 µM | GI50 (NCI-H226 lung): 0.547 µM | TGI (NCI-H226 lung): 7.97 µM | GI50 (SF-539 CNS): 0.744 µM | TGI (SF-539 CNS): 13.5 µM | GI50 (MCF7 breast): 0.354 µM | TGI (MCF7 breast): 13.6 µM | GI50 (SNB-75 CNS): 0.313 µM | TGI (SNB-75 CNS): 12.7 µM | GI50 (SF-268 CNS): 0.957 µM | TGI (SF-268 CNS): > 46.4 µM | GI50 (SNB-19 CNS): 0.405 µM | TGI (SNB-19 CNS): 35.2 µM | GI50 (TK-10 renal): 1.05 µM | TGI (TK-10 renal): 43.7 µM | GI50 (HOP-62 NSCLC): 0.516 µM | TGI (HOP-62 NSCLC): 16.9 µM | GI50 (HCT-116 colon): 0.42 µM | TGI (HCT-116 colon): 11.4 µM | GI50 (HT29 colon): 0.586 µM | TGI (HT29 colon): 4.16 µM
